According to patent publication US20250367166A1, “NEXT GENERATION DIPROVOCIMS THAT ACTIVATE THE INNATE AND ADAPTIVE IMMUNE RESPONSE” (The Scripps Research Institute, priority 2022, published 2025):
Like-named read-outs stand apart in the source and are kept apart here. Each block holds one compound with its values, some of them ahead of it.

Columns and labels:
[1] = test system: SIINFEKL-loaded C57BL/6J splenocytes; assay: In vivo CTL assay after i.m. immunization with OVA plus diprovocim; set-up: species or system C57BL/6J mice; settings: 200 μg diprovocim + 100 μg OVA, 9 days after initial immunization and 9 days after boost
Experimental: (§1) Mice were injected i.m. on day 0 and day 28 (FIG. 1) with 100 μg OVA alone, or 100 μg OVA mixed with vehicle (DMSO:Tween 80:saline=1:1:8), or mixed with 200 μg diprovocim-1 (TNF-α 1) or diprovocim-X (TNF-α 35) per mouse. EndoFit ovalbumin (OVA) with >98% purity minimum (SDS-PAGE) and endotoxin levels <1 EU/mg was purchased from Invivogen.
On day 9 and day 37 (FIG. 1), naive C57BL/6J mice were killed, and splenocytes were collected. […] The unpulsed and peptide-pulsed cells were labeled, respectively, with […] (“low”) or […] (“high”) CellTrace Violet (Invitrogen) in serum-free medium for 20 min. Equal numbers (2×10^6) of CellTrace Violet^high (OVA pulsed) and CellTrace Violet^low (unpulsed) cells were mixed together and injected intravenously into the immunized mice.
After 48 h, blood from treated mice was collected and subjected to flow cytometry analysis. The numbers of remaining live CellTrace Violet^high and CellTrace Violet^low cells were determined and used to calculate the percentage of OVA peptide-pulsed target cells killed. Specific killing was defined as the ratio=CellTrace Violet^low cells/CellTrace Violet^high cells. The percentage of target cell lysis=[1−unimmunized ratio/immunized ratio]×100.

[2] = test system: OVA-specific IgG, IgG1, or IgG2b; assay: Antibody response assay: serum OVA-specific IgG, IgG1, IgG2b by ELISA; format: in vivo, C57BL/6J mice; settings: 14 days after a single immunization, with OVA
Experimental: as §1
On day 14 (FIG. 1), serum titers of OVA-specific IgG, IgG1, or IgG2b (SouthernBiotech) were measured by ELISA. Nunc MaxiSorp flat-bottom 96-well microplates (Thermo Fisher Scientific) were coated with 5 μg/mL soluble OVA (Invivogen) and incubated at 4° C. overnight (ca. 18 h). Plates were washed four times with washing buffer (0.05% [vol/vol] Tween-20 in PBS), then blocked with 1% (vol/vol) BSA in PBS for 1 h at room temperature. Serum samples diluted in 1% (vol/vol) BSA were added to the prepared plates and incubated for 2 h. The plates were washed eight times with washing buffer and then incubated with HRP-conjugated goat anti-mouse IgG, IgG1, or IgG2b for 1 h at room temperature. Plates were washed eight times with washing buffer, then developed with SureBlue TMB Microwell Peroxidase Substrate and TMB Stop Solution (KPL). Absorbance was measured at 450 nm on a Synergy Neo2 Plate Reader (BioTek).

B16-OVA melanoma [3] = assay: Tumor growth assay, B16-OVA melanoma in immunized mice; format: in vivo, C57BL/6J mice; settings: inoculation 10 days after the second challenge; anti-mPD-L1 i.p.
Experimental: as §1
B16-OVA cells (B16F10 melanoma cells stably expressing chicken ovalbumin) were grown in DMEM containing 10% vol/vol FBS. On day 38 (FIG. 1), a total of 2×10^5 B16-OVA cells in 100 μL PBS were injected s.c. into the right flank of 17 week-old male C57BL/6J mice to establish tumors. On days 41, 44, and 47, the mice were injected i.p. with 200 μg checkpoint inhibitor (anti-mPD-L1, BioXcell) in 100 μL saline. Tumors were measured with a digital caliper (Fisher) and the tumor sizes were calculated using the following formula: volume=0.5×length×width^2. Mice were sacrificed when the tumor length or width reached 2 cm.

[4] = In vivo adjuvant activity, i.m. co-administration with ovalbumin; settings: for adjuvant activity in mice (CD4- and CD-8-dependent responses): with OVA, i.m.
Experimental: C57BL/6J mice were purchased from The Jackson Laboratory. All study procedures using mice were approved by the Institutional Animal Care and Use Committee (IACUC) of the University of Texas Southwestern Medical Center and were conducted in accordance with institutionally approved protocols and guidelines for animal care and use. All the mice were maintained at the University of Texas Southwestern Medical Center in accordance with institutionally approved protocols.
EndoFit ovalbumin (OVA) with >98% purity minimum (SDS-PAGE) and endotoxin levels <1 EU/mg was purchased from Invivogen.

TLR1/TLR2 [5] = target: T1, TLR1/TLR2 (Homo sapiens, UniProt O60603+Q15399); settings: table of b113, in parentheses; cited from earlier work
T1 sequence (Q15399 25-786): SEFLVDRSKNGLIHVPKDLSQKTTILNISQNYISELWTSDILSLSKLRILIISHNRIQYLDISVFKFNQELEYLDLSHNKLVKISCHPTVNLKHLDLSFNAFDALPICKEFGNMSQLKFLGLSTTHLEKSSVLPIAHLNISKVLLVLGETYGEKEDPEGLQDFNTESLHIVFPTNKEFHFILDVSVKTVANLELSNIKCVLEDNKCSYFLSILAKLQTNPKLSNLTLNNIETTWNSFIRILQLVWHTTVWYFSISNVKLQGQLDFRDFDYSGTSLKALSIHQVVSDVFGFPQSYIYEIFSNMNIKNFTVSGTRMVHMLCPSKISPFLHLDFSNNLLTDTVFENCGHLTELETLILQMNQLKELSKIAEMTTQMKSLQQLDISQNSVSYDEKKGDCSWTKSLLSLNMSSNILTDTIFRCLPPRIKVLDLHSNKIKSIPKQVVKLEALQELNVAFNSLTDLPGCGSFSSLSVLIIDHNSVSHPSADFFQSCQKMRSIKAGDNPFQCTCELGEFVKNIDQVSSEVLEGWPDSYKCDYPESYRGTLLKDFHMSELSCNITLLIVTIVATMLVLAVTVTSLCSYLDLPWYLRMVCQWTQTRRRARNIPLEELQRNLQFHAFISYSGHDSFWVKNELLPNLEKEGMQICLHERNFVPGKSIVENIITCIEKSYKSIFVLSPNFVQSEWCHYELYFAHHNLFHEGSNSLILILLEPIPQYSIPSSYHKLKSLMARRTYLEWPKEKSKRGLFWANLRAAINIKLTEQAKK
T1 sequence (O60603 21-784): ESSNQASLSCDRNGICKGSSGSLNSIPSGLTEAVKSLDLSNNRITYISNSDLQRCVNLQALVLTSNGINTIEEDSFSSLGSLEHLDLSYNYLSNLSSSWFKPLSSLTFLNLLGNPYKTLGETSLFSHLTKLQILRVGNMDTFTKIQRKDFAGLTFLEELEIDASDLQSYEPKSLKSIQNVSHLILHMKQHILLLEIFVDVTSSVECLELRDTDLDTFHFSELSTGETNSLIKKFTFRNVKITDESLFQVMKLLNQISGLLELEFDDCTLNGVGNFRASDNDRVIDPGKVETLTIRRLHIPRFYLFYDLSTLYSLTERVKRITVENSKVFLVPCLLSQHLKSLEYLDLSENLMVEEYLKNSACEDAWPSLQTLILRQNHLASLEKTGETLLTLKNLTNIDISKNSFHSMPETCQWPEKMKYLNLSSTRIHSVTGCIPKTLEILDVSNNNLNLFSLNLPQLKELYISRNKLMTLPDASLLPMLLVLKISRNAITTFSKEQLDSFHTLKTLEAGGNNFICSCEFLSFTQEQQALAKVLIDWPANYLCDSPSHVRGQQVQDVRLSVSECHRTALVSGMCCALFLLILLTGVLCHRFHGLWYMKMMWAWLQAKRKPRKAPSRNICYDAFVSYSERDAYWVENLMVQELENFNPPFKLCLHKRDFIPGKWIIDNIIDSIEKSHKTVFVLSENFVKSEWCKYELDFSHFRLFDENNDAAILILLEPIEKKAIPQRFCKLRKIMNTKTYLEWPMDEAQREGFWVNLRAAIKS

TLR1/TLR2 [6] = target: T2, TLR1/TLR2 (Mus musculus, UniProt Q9EPQ1+Q9QUN7); settings: cited from earlier work
T2 sequence (Q9EPQ1 26-795): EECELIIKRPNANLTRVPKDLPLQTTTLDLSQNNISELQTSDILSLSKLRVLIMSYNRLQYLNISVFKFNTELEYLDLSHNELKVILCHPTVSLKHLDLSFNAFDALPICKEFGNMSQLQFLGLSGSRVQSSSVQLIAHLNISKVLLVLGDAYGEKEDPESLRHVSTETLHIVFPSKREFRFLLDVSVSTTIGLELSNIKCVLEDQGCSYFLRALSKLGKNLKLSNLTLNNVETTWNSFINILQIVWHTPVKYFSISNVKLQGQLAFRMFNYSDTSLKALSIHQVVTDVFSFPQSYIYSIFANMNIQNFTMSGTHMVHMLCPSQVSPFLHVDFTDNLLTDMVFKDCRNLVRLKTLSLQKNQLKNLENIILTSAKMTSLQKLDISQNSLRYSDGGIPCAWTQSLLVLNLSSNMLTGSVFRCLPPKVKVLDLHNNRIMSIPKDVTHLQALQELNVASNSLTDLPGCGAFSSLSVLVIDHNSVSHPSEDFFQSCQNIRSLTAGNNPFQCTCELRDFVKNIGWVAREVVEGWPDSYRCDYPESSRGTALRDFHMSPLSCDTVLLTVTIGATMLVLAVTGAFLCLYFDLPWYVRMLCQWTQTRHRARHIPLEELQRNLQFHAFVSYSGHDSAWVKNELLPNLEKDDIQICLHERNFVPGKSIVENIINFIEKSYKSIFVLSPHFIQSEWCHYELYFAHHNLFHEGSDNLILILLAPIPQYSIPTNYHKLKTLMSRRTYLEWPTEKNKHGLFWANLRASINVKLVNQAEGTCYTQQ
T2 sequence (Q9QUN7 25-784): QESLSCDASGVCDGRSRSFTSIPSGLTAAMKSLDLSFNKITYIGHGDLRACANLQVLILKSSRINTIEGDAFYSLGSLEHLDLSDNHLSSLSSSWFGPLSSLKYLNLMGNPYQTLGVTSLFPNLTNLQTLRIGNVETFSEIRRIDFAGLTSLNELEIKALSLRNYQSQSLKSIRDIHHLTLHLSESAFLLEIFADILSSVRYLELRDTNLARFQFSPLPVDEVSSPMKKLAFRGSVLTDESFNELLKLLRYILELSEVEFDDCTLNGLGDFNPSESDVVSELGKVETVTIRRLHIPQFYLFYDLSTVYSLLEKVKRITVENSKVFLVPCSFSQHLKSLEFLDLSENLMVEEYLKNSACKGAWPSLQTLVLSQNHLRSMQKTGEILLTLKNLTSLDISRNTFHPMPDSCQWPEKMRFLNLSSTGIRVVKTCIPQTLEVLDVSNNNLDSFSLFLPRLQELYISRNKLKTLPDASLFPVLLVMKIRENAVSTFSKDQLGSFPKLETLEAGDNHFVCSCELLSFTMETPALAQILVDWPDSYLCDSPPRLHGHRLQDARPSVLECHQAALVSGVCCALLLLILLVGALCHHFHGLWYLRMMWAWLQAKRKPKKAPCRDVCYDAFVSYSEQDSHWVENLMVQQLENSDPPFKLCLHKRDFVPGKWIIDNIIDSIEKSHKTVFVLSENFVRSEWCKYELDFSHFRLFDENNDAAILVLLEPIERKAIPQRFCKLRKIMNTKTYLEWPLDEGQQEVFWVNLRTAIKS

B16-OVA melanoma [7] = settings: background; diprovocim/OVA i.m.; cited from earlier work
[8] = background; cited from earlier work
TLR1/TLR2 [9] = target: T1, TLR1/TLR2; assay: TNF-α release from PMA-differentiated human THP-1 cells (ELISA);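 further: cells exposed to graded compound concentrations for 4 h, TNF-α quantified in supernatant, LPS as positive and DMSO as negative control, values are duplicate means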
TLR1/TLR2 [10] = target: T2, TLR1/TLR2; assay: TNF-α release from thioglycolate-elicited mouse peritoneal macrophages (ELISA)
Experimental: Thioglycolate-elicited macrophages were recovered 4 days after i.p. injection of 2 mL BBL thioglycolate medium, brewer modified (4%; BD Biosciences) by peritoneal lavage with 5 mL phosphate buffered saline (PBS). […] Cells were seeded onto 96-well plates at 1×10^3 cells per well and treated with systematically varied concentrations of the candidate compounds (dissolved in DMSO, and final assay DMSO concentrations (0.5%) were kept constant in all experiments) for 4 h. Ultra-pure LPS (dissolved in H2O, Enzo Life Sciences) was assessed alongside the compounds as a positive control and DMSO treated controls. […] Mouse TNF-α in the supernatants was measured by ELISA kits according to the manufacturer's instructions (eBioscience). EC50's were calculated by Graphpad Prism. All data is mean of duplicates and SD is within ±10% of mean. Mouse cells were from wild type C57BL/6J mice.

[11] = read-out: EC50 (nM) (THP-1): EC50 TNF-α release from human THP-1 cells, Table 6
[12] = read-out: EC50 (nM) (mouse): EC50 TNF-α release from mouse macrophages, Table 6

SMILES: O=C(N[C@H]1C[C@@H]1c1ccccc1)[C@@H]1CN(C(=O)c2ccc(C(=O)N3C[C@@H](C(=O)N[C@H]4C[C@@H]4c4ccccc4)[C@H](C(=O)N[C@H]4C[C@@H]4c4ccccc4)C3)cc2)C[C@H]1C(=O)N[C@H]1C[C@@H]1c1ccccc1 [Compound 1, reference compound]
in vivo cytotoxicity against OVA peptide-loaded C57BL/6J splenocytes (CTL, FIG. 2A) [1]: induced strong in vivo cytotoxicity
OVA-specific circulating antibodies of different subtypes by ELISA (FIGS. 3A-3C) [2]: strong responses
Resistance to B16-OVA melanoma (FIG. 2B) (B16-OVA melanoma [3]): notably enhanced
overt toxicity when used as an adjuvant ([4]; compared with LPS administration): did not display the overt toxicity
adjuvant activity in mice (CD4- and CD-8-dependent responses) [4]: comparable adjuvant activity
Efficacy (magnitude) of response versus diprovocim-1 (100%), THP-1 (TLR1/TLR2 [5]): 100%
Efficacy (magnitude) of response versus diprovocim-1 (100%), mouse macrophages (TLR1/TLR2 [6]; table of b113, in parentheses): 100%
effect of combination with anti-PD-L1 on B16-OVA tumors in mice (B16-OVA melanoma [7]): eradicated tumors
adjuvant activity in mice when co-administered i.m. with ovalbumin [8]: effective adjuvant

SMILES: O=C(O)[C@@H]1CN(C(=O)c2ccc(C(=O)N3C[C@@H](C(=O)N[C@H]4C[C@@H]4c4ccccc4)[C@H](C(=O)N[C@H]4C[C@@H]4c4ccccc4)C3)cc2)C[C@H]1C(=O)N[C@H]1C[C@@H]1c1ccccc1 [Compound 2]
Efficacy (magnitude) of response versus diprovocim-1 (100%), THP-1 (TLR1/TLR2 [5]): 110%
EC50 (TLR1/TLR2 [6]; table of b113, prior observation ref 15, read-out: EC50 (nM) (mouse): EC50 TNF-α release from mouse macrophages): > 5000 nM

SMILES: CC(C)(C)OC(=O)NCC(=O)OCCCCCCCCCCCCNC(=O)[C@@H]1CN(C(=O)c2ccc(C(=O)N3C[C@@H](C(=O)N[C@H]4C[C@@H]4c4ccccc4)[C@H](C(=O)N[C@H]4C[C@@H]4c4ccccc4)C3)cc2)C[C@H]1C(=O)N[C@H]1C[C@@H]1c1ccccc1 [Compound 35, 12-((3S,4S)-1-(4-((3S,4S)-3,4-Bis(((1S,2R)-2-phenylcyclopropyl)carbamoyl)-pyrrolidine-1-carbonyl)benzoyl)-4-(((1S,2R)-2-phenyl-cyclopropyl)carbamoyl)-pyrrolidine-3-carboxamido)-dodecyl-2-((tert-butoxycarbonyl)-amino)acetate]
in vivo cytotoxicity against OVA peptide-loaded C57BL/6J splenocytes (CTL, FIG. 2A) [1]: induced strong in vivo cytotoxicity
OVA-specific circulating antibodies of different subtypes by ELISA (FIGS. 3A-3C) [2]: strong responses
Resistance to B16-OVA melanoma (FIG. 2B) (B16-OVA melanoma [3]): notably enhanced
adjuvant activity in mice (CD4- and CD-8-dependent responses) [4]: matching or surpassing the activity of diprovocim-1
efficacy relative to that of diprovocim-1 in human THP-1 cells (TLR1/TLR2 [9]): 100%
Efficacy (magnitude) of response versus diprovocim-1 (100%), THP-1 (TLR1/TLR2 [9]; Table 3, in parentheses): 100%
Efficacy (magnitude) of response versus diprovocim-1 (100%), THP-1 (TLR1/TLR2 [9]; Table 5, in parentheses): 100%
Efficacy (magnitude) of response versus diprovocim-1 (100%), THP-1 (TLR1/TLR2 [9]; Table 6, in parentheses): 100%
EC50 (TLR1/TLR2 [9]; read-out: EC50 (nM) (THP-1): EC50 TNF-α release from human THP-1 cells, Table 3): 0.14 nM
EC50 (TLR1/TLR2 [9]; read-out: EC50 (nM) (THP-1): EC50 TNF-α release from human THP-1 cells, Table 5): 0.14 nM
EC50 (TLR1/TLR2 [9]; [11]): 0.14 nM
EC50 (TLR1/TLR2 [9]; read-out: EC50 in human THP-1 cells): 0.14 nM
efficacy relative to that of diprovocim-1 in mouse macrophages (TLR1/TLR2 [10]): 550%
fold more active than diprovocim-1 in mouse macrophages (TLR1/TLR2 [10]): 2 fold
Efficacy (magnitude) of response versus diprovocim-1 (100%), mouse macrophages (TLR1/TLR2 [10]; Table 3, in parentheses): 550%
Efficacy (magnitude) of response versus diprovocim-1 (100%), mouse macrophages (TLR1/TLR2 [10]; Table 5, in parentheses): 550%
Efficacy (magnitude) of response versus diprovocim-1 (100%), mouse macrophages (TLR1/TLR2 [10]; Table 6, in parentheses): 550%
EC50 (TLR1/TLR2 [10]; read-out: EC50 (nM) (mouse): EC50 TNF-α release from mouse macrophages, Table 3): 0.75 nM
EC50 (TLR1/TLR2 [10]; read-out: EC50 (nM) (mouse): EC50 TNF-α release from mouse macrophages, Table 5): 0.75 nM
EC50 (TLR1/TLR2 [10]; [12]): 0.75 nM
EC50 (TLR1/TLR2 [10]; read-out: EC50 in mouse macrophages): 0.75 nM

Emax (TLR1/TLR2 [9]; THP-1, 4 h, read-out: Efficacy (magnitude) of response versus diprovocim-1 (100%), THP-1): 100%
EC50 (TLR1/TLR2 [9]; [11]): 2.9 nM
Emax (TLR1/TLR2 [10]; 4 h, read-out: Efficacy (magnitude) of response versus diprovocim-1 (100%), mouse macrophages): 50%
EC50 (TLR1/TLR2 [10]; [12]): 49 nM
SMILES: O=C(O)c1ccc(C(=O)NCCOCCCCCCCCCCCCNC(=O)[C@@H]2CN(C(=O)c3ccc(C(=O)N4C[C@@H](C(=O)N[C@H]5C[C@@H]5c5ccccc5)[C@H](C(=O)N[C@H]5C[C@@H]5c5ccccc5)C4)cc3)C[C@H]2C(=O)N[C@H]2C[C@@H]2c2ccccc2)cc1 [Compound 86, 4-((2-((12-((3S,4S)-1-(4-((3S,4S)-3,4-Bis(((1S,2R)-2-phenylcyclopropyl)carbamoyl)pyrrolidine-1-carbonyl)benzoyl)-4-(((1S,2R)-2-phenylcyclopropyl)-carbamoyl)pyrrolidine-3-carboxamido)dodecyl)-oxy)ethyl)carbamoyl)benzoic acid]
